From patent publication US20170360795A1, “TREATMENT OF CANCERS USING PI3 KINASE ISOFORM MODULATORS” (INFINITY PHARMACEUTICALS, INC., priority 2013, published 2017)
Entries after “also recorded” stand apart in the source; their conditions may differ. Marks after values point to notes of the source that are not given here.

Columns and labels:
[1] = test system: hematologic malignancies; experiment: Phase 1 dose-escalation study in hematologic malignancies: tumor response; assay type: in vivo, human; conditions: for responses: 8, 15 and 25 mg BID
[2] = in vivo rat micronucleus assay
[3] = test system: PTEN wildtype cell lines (Molt-13 and Molt-16); experiment: growth inhibition of T-ALL cells; assay type: cell-based
[4] = test system: PTEN deletion cell lines; experiment: sensitivity of PTEN deletion cell lines; assay type: cell-based
[5] = test system: CD63 expression on CCR3+ basophils; experiment: ex vivo anti-FcεR1 basophil activation assay, healthy subjects; assay type: in vivo, human; conditions: single and multiple doses
[6] = test system: HH cells; experiment: CTCL cytotoxicity, 72 hours; assay type: cell-based
Description: MJ and HuT78 cells were grown in IMDM 20% FBS, and HH cells were grown in RPMI 10% FBS.

[7] = test system: Sézary syndrome; experiment: clinical activity in Sézary syndrome; assay type: in vivo, human; conditions: 60 mg BID, 28 days cycle
Description: Number of Sézary cells were determined by following conventional procedures using flowcytometry. […] CT response was assessed in terms of Sum of Product Diameters (SPD). […] Finally, mSWAT scores were determined using conventional procedures well-known in the art (see, e.g., Olsen et al., Journal of Clinical Oncology, available from http://jco.ascopubs.org/cgi/doi/10.1200.JCO.2010.32.0630 (2011)).

[8] = test system: circulating CLL cells; experiment: Circulating CLL cells in treated CLL patients; assay type: in vivo, human; conditions: 25 mg BID
[9] = test system: pAKT, pPRAS40 and pS6 in SU-DHL-6, SU-DHL-4 and Ri-1; experiment: western blot of PI3K pathway proteins in DLBCL cell lines; assay type: cell-based
Description: At 1 hour after the treatment, levels of various proteins were assessed by western blot, the results of which are shown in FIG. 31.
Activation of the PI3K pathway is an important component of normal B-cell receptor (BCR) signaling and has been implicated in the pathogenesis of DLBCL. […] There was rapid modulation of phospho-AKT and phospho-PRAS40 by 30 minutes, whereas modulation of phospho-S6 was not detected until after 8 hours.

[10] = clinical study in healthy adult subjects: pharmacokinetics; assay type: in vivo, human
[11] = test system: Ri-1; experiment: cellular growth inhibition assay (72 hour CTG), DLBCL; assay type: cell-based; conditions: Ri-1 (ABC)
[12] = test system: migration of CLL cells; experiment: chemotaxis assay; assay type: cell-based; conditions: n=8
Source text: (FIGS. 35 and 36). […] In addition, this direct inhibitory effect on CLL cells in the lymph nodes could lead to rapid and prolonged responses in cancer patients.

[13] = test system: OCI-LY-8; experiment: cellular growth inhibition assay, DLBCL; assay type: cell-based
[14] = test system: CLL/SLL; experiment: Clinical activity in CLL/SLL patients; assay type: in vivo, human
[15] = time-course in selected DLBCL cell lines

## C[C@H](Nc1ncnc2[nH]cnc12)c1cc2cccc(Cl)c2c(=O)n1-c1ccccc1 [Compound 292]
[1]; B cell lymphoma, 16 out of 18 responders
  responders with response by first assessment (within about 2 months): 89%
[1]; CLL/SLL (11 evaluable)
  Time to Response in Months Median (range): 2.9 (1.8, 5.6) Months
[1]; CLL/SLL (11 evaluable), four nodal responses
  Best Observed Response: SD: 4 ^c n
[1]; CLL/SLL
  responses: 2/3
[1]; CTCL (T/E 10/4)
  Median Time to Response in Months (range): 1.7 (—) ^ Months
[1]; HL (2 evaluable)
  Time to Response in Months Median (range): 1.7 (1.7, 1.7) Months
[1]; HL (T/E 3/3)
  Median Time to Rsp in Months (Range): 1.7 Months
[1]; MCL (3 evaluable)
  Time to Response in Months Median (range): 1.9 (1.9, 1.9) Months
[1]; MCL (T/E 9/6)
  Median Time to Rsp in Months (Range): 1.8 (1.6-1.9) Months
[1]; PTCL (T/E 7/5)
  Median Time to Response in Months (range): 2.3 (1.9-2.7) Months
[1]; T cell lymphoma (2 PTCL and 1 CTCL)
  patients with at least 50% tumor response (CT scans): 33%
[1]; T-Cell Lymphoma (6 evaluable)
  Time to Response in Months Median (range): 2.4 (1.8, 3.1) Months
[1]; TCL Total (T/E 17/9)
  Median Time to Response in Months (range): 1.9 (1.7-2.7) Months
[1]; iNHL (13 evaluable)
  Time to Response in Months Median (range): 1.8 (1.7, 2.8) Months
[1]; iNHL (T/E 26/19)
  Median Time to Rsp in Months (Range): 1.8 (1.7-4.1) Months
[1]; iNHL
  responses: 1/2
[2]
  direct adverse effect in micronucleus assay: no direct adverse effect
[3]
  growth inhibition: resistant
[4]; 145 subsets of PTEN deletion cell lines
  sensitivity: differentially susceptible
[4]; PTEN wild type cells
  sensitivity: not sensitive
[5]
  time of maximum reduction of basophil activation: 1 hr post dose
[5]; all dose levels
  reduction of basophil activation (CD63 expression): dose-dependent reduction; also recorded: reduced in a dose-dependent manner
[6]
  cytotoxicity, sensitivity: more sensitive
[7]
  CT response, Sum of Product Diameters (SPD): reduction in SPD
  mSWAT scores: reduction in mSWAT scores
[7]; flowcytometry
  number of Sézary cells in peripheral blood: substantial reduction
[8]
  CD38/CD69 double positive circulating CLL cells: reduction
  CD38 positive circulating CLL cells: reduction
  CD69 positive circulating CLL cells: reduction
[9]; 0.001-1 μM, 1 hour, western blot, SU-DHL-6, SU-DHL-4 and Ri-1
  levels of pAKT, pPRAS40 and pS6: decrease
[9]; [15]
  time to detection of modulation of phospho-S6: > 8 h
  time to modulation of phospho-AKT and phospho-PRAS40: ≤ 30 min
[10]; 14 days of Q12 h oral administration
  accumulation: less than 2 fold
[10]; across the dose ranges evaluated
  exposure versus dose: increased proportionally to dose
[11]
  sensitivity in cellular growth inhibition assay: more sensitive; also recorded: nanomolar (nM) range
[12]
  reduction in migration of CLL cells, % control reduction, range: 2-42%
[13]; OCI-LY-8 (GCB), without BCR crosslinking
  IC50, cellular growth inhibition: low micromolar (μM) range
[13]; OCI-LY-8 with BCR crosslinking
  sensitivity in cellular growth inhibition assay: nM range
[14]
  clinical activity: rapid onset of clinical activity
15 mg BID cohort
  dose limiting toxicity: Grade 4 neutropenia
20 patients, 8-50 mg BID
  new Grade >3 neutropenia: 6 (30%) n (%)
  new Grade >3 thrombocytopenia: 1 (5%) n (%)
  patients with AEs Grade >3: 7 (35%) n (%)
  patients with adverse events (AEs): 13 (65%) n (%)
20 patients, MM patient, onset 6 weeks after initiation of dosing
  Grade 3 ALT/AST elevations: 1 (5%) n (%)
